Test results: patent publication US20090209536A1, “AMINOQUINAZOLINE CANNABINOID RECEPTOR MODULATORS FOR TREATMENT OF DISEASE” (KALYPSYS, INC., priority 2007, published 2009)
Like-named read-outs stand apart in the source and are kept apart here.

Columns and labels:
[1] = target: T1, human cannabinoid receptor type 1 (Homo sapiens, UniProt P21554); experiment: Human CB1 Radioligand Binding Assay (basis of selectivity, CB2 vs. CB1); settings: CB1: HEK 293 EBNA cells expressing human CB1; CB2: CHO CB2 membranes
T1 construct: purchased Perkin Elmer RBHCB1M; host or cells: HEK 293 EBNA cells
Procedure: 2. Human CB1 Radioligand Binding Assay
The incubation buffer was composed of 50 mM Tris-HCl pH 7.4, 2.5 mM EDTA, 5 mM MgCl2, 5.0 mg/ml fatty acid free BSA and the wash buffer was composed of 50 mM Tris-HCl pH 7.4, 2.5 mM EDTA, 5 mM MgCl2, 0.5 mg/ml fatty acid free BSA.

[2] = target: T2, human cannabinoid receptor type 2 (Homo sapiens, UniProt P34972); experiment: Human CB2 Radioligand Binding Assay; settings: membranes from stably transfected CHO CB2 cells
T2 construct: expressed in transfected cells; membrane preparation
In short: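 Filtration competition binding on membranes from CHO cells stably expressing human CB2, with [3H]CP-55,940 at its lot-specific Kd, in 50 mM Tris-HCl pH 7.4, EGTA, MgCl2, 5 mg/ml BSA, 1% DMSO; 90 min at 30° C. Compounds at 10 uM single point or dose-response; bound radioactivity by scintillation, 100 nM CP-55,940 as 100% efficacy.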

[3] = competition with [3H] CP-55,940, read-out: CB2 Ligand Binding Asssay EC50

T2 sequence (P34972 whole entry): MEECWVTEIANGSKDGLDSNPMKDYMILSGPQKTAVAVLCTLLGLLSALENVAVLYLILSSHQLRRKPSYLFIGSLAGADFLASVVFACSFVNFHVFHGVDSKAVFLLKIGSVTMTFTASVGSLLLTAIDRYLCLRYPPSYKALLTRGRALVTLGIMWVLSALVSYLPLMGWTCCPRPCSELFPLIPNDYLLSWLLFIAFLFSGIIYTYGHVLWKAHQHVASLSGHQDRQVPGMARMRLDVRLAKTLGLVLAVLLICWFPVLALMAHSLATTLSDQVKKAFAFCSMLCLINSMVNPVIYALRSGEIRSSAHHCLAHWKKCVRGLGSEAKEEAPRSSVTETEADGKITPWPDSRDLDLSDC
T1 sequence (P21554 whole entry): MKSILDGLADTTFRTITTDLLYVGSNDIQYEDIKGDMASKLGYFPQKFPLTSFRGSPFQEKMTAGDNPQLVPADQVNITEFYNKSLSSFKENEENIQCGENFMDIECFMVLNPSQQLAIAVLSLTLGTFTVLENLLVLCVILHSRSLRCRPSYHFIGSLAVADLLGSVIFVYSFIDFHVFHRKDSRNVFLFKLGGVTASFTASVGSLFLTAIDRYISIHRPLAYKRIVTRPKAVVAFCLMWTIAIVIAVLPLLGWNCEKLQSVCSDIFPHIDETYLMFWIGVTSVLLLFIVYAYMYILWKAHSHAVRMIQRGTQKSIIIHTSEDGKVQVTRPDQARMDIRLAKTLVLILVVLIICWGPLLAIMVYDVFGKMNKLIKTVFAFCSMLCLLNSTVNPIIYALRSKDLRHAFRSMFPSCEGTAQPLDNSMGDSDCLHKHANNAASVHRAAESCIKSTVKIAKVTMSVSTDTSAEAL

Row | Structure (SMILES) | Selectivity, CB2 vs. CB1 [1] | EC50 [2, 3] [µM] | EC50 ([2]; CB2 Ligand Binding Asssay EC50, competition with [3H] CP-55,940) [µM]
1 | CN(c1ccc(C(C)(C)C)cc1)c1nc(-c2ccc(C(C)(C)C)cc2)nc2ccccc12 [Example 119, N,2-Bis(4-tert-butylphenyl)-N-methylquinazolin-4-amine] | − (− indicates ≦ 10−fold) | > 1 | –
2 | Clc1ccc(-c2nc(NCc3ccccc3)c3ccccc3n2)cc1 [Example 121, N-Benzyl-2-(4-chlorophenyl)quinazolin-4-amine] | − (− indicates ≦ 10−fold) | > 1 | –
3 | Clc1ccc(-c2nc(N3CCc4ccccc4C3)c3ccccc3n2)cc1 [Example 123, 2-(4-Chlorophenyl)-4-(3,4-dihydro-1H-isoquinolin-2-yl)quinazoline] | − (− indicates ≦ 10−fold) | > 1 | –
4 | CC1CCCCN1c1nc(-c2ccc(Cl)cc2)nc2ccccc12 (stereo not shown) [Example 124, 2-(4-Chlorophenyl)-4-(2-methylpiperidin-1-yl)quinazoline] | − (− indicates ≦ 10−fold) | > 1 | –
5 | Clc1ccc(-c2nc(N3CCOCC3)c3ccccc3n2)cc1 [Example 126, 4-(2-(4-Chlorophenyl)quinazolin-4-yl)morpholine] | + (+ indicates > 10−fold) | < 1 | –
6 | Clc1ccc(-c2nc(N3CCCCC3)c3ccccc3n2)cc1 [Example 127, 2-(4-Chlorophenyl)-4-(piperidin-1-yl)quinazoline] | − (− indicates ≦ 10−fold) | > 1 | –
7 | CN(c1nc(-c2ccc(C(C)(C)C)cc2)nc2ccccc12)C1CCCCC1 [Example 131, 2-(4-tert-Butylphenyl)quinazolin-4-yl cyclohexylmethylamine] | − (− indicates ≦ 10−fold) | < 1 | –
8 | CC(C)(C)c1ccc(-c2nc(Nc3ccccc3Cl)c3ccccc3n2)cc1 [Example 133, 2-(4-tert-Butylphenyl)quinazolin-4-yl 2-chlorophenylamine] | − (− indicates ≦ 10−fold) | > 1 | –
9 | CN1CCN(c2nc(C3CCCC3)nc3ccccc23)CC1 [Example 138, 2-Cyclopentyl-4-(4-methylpiperazin-1-yl)quinazoline] | + (+ indicates > 10−fold) | < 1 | –
10 | FC(F)(F)Oc1ccc(-c2nc(N3CCCC3)c3ccccc3n2)cc1 [Example 139, 4-Pyrrolidin-1-yl-2-(4-trifluoromethoxyphenyl)quinazoline] | − (− indicates ≦ 10−fold) | < 1 | –
11 | FC(F)(F)Oc1ccc(-c2nc(N3CCCCC3)c3ccccc3n2)cc1 [Example 140, 4-Piperidin-1-yl-2-(4-trifluoromethoxyphenyl)quinazoline] | − (− indicates ≦ 10−fold) | < 1 | –
12 | CC(C)c1nc(N2CCCC2)c2ccccc2n1 [Example 145, 2-Isopropyl-4-pyrrolidin-1-ylquinazoline] | − (− indicates ≦ 10−fold) | > 1 | –
13 | CC(C)c1nc(N2CCOCC2)c2ccccc2n1 [Example 147, 2-Isopropyl-4-morpholin-4-ylquinazoline] | − (− indicates ≦ 10−fold) | – | > 1
14 | Fc1ccccc1-c1nc(N2CCCCC2)c2ccccc2n1 [Example 150, 2-(2-Fluorophenyl)-4-piperidin-1-ylquinazoline] | − (− indicates ≦ 10−fold) | < 1 | –
15 | Cc1ccccc1-c1nc(N2CCOCC2)c2ccccc2n1 [Example 156, 4-Morpholin-4-yl-2-o-tolylquinazoline] | − (− indicates ≦ 10−fold) | > 1 | –

Continued, in another order:

Row | Selectivity, CB2 vs. CB1 [1] | EC50 [2, 3] [µM] | Structure (SMILES) | EC50 ([2]; CB2 Ligand Binding Asssay EC50, competition with [3H] CP-55,940) [µM]
16 | − (− indicates ≦ 10−fold) | > 1 | CN(Cc1ccccc1)c1nc(-c2ccc(Cl)cc2)nc2ccccc12 [Example 120, N-Benzyl-2-(4-chlorophenyl)-N-methylquinazolin-4-amine] | –
17 | + (+ indicates > 10−fold) | < 1 | CN1CCN(c2nc(-c3ccc(Cl)cc3)nc3ccccc23)CC1 [Example 122, 2-(4-Chlorophenyl)-4-(4-methylpiperazin-1-yl)quinazoline] | –
18 | − (− indicates ≦ 10−fold) | < 1 | CC1CCN(c2nc(-c3ccc(Cl)cc3)nc3ccccc23)CC1 [Example 125, 2-(4-Chlorophenyl)-4-(4-methylpiperidin-1-yl)quinazoline] | –
19 | + (+ indicates > 10−fold) | < 1 | Clc1ccc(-c2nc(N3CCCC3)c3ccccc3n2)cc1 [Example 128, 2-(4-Chlorophenyl)-4-(pyrrolidin-1-yl)quinazoline] | –
20 | + (+ indicates > 10−fold) | < 1 | CC(C)(C)c1ccc(-c2nc(NCC3CC3)c3ccccc3n2)cc1 [Example 130, 2-(4-tert-Butylphenyl)quinazolin-4-yl cyclopropylmethylamine] | –
21 | − (− indicates ≦ 10−fold) | < 1 | CN(CC1CC1)c1nc(-c2ccc(C(C)(C)C)cc2)nc2ccccc12 [Example 132, 2-(4-tert-Butylphenyl)quinazolin-4-yl cyclopropylmethyl-N-methylamine] | –
22 | − (− indicates ≦ 10−fold) | < 1 | CN(c1ccccc1Cl)c1nc(-c2ccc(C(C)(C)C)cc2)nc2ccccc12 [Example 134, 2-(4-tert-Butylphenyl)quinazolin-4-yl 2-chlorophenyl-N-methylamine] | –
23 | − (− indicates ≦ 10−fold) | > 1 | c1ccc2c(N3CCCCC3)nc(C3CCCC3)nc2c1 [Example 136, 2-Cyclopentyl-4-piperidin-1-ylquinazoline] | –
24 | − (− indicates ≦ 10−fold) | > 1 | c1ccc2c(N3CCOCC3)nc(C3CCCC3)nc2c1 [Example 137, 2-Cyclopentyl-4-morpholin-4-ylquinazoline] | –
25 | − (− indicates ≦ 10−fold) | > 1 | FC(F)(F)Oc1ccc(-c2nc(N3CCOCC3)c3ccccc3n2)cc1 [Example 141, 4-Morpholin-4-yl-2-(4-trifluoromethoxyphenyl)quinazoline] | –
26 | − (− indicates ≦ 10−fold) | < 1 | CN1CCN(c2nc(-c3ccc(OC(F)(F)F)cc3)nc3ccccc23)CC1 [Example 142, 4-(4-Methylpiperazin-1-yl)-2-(4-trifluoromethoxyphenyl)quinazoline] | –
27 | − (− indicates ≦ 10−fold) | > 1 | CN(c1ccc(C(C)(C)C)cc1)c1nc(-c2ccc(OC(F)(F)F)cc2)nc2ccccc12 [Example 144, (4-tert-Butylphenyl)methyl-[2-(4-trifluoromethoxyphenyl)quinazolin-4-yl]amine] | –
28 | − (− indicates ≦ 10−fold) | > 1 | CC(C)c1nc(N2CCCCC2)c2ccccc2n1 [Example 146, 2-Isopropyl-4-piperidin-1-ylquinazoline] | –
29 | − (− indicates ≦ 10−fold) | > 1 | CC(C)c1nc(N2CCN(C)CC2)c2ccccc2n1 [Example 148, 2-Isopropyl-4-(4-methylpiperazin-1-yl)quinazoline] | –
30 | − (− indicates ≦ 10−fold) | > 1 | Fc1ccccc1-c1nc(N2CCOCC2)c2ccccc2n1 [Example 149, 2-(2-Fluorophenyl)-4-morpholin-4-ylquinazoline] | –
31 | − (− indicates ≦ 10−fold) | < 1 | Fc1ccccc1-c1nc(N2CCCC2)c2ccccc2n1 [Example 151, 2-(2-Fluorophenyl)-4-pyrrolidin-1-ylquinazoline] | –
32 | + (+ indicates > 10−fold) | < 1 | CN1CCN(c2nc(-c3ccccc3F)nc3ccccc23)CC1 [Example 152, 2-(2-Fluorophenyl)-4-(4-methylpiperazin-1-yl)quinazoline] | –
33 | + (+ indicates > 10−fold) | < 1 | CC(=O)N1CCN(c2nc(-c3ccccc3F)nc3ccccc23)CC1 [Example 153, 1-(4-(2-(2-Fluorophenyl)quinazolin-4-yl)piperazin-1-yl)ethanone] | –
34 | + (+ indicates > 10−fold) | < 1 | CC(=O)N1CCN(c2nc(-c3cccc(F)c3)nc3ccccc23)CC1 [Example 154, 1-(4-(2-(3-Fluorophenyl)quinazolin-4-yl)piperazin-1-yl)ethanone] | –
35 | − (− indicates ≦ 10−fold) | > 1 | Cc1ccccc1-c1nc(N2CCCC2)c2ccccc2n1 [Example 155, 4-Pyrrolidin-1-yl-2-o-tolylquinazoline] | –
36 | + (+ indicates > 10−fold) | < 1 | Cc1ccccc1-c1nc(N2CCN(C)CC2)c2ccccc2n1 [Example 157, 4-(4-Methylpiperazin-1-yl)-2-o-tolylquinazoline] | –
37 | − (− indicates ≦ 10−fold) | > 1 | COc1ccc2c(N3CCN(C)CC3)nc(C3CCCCC3)nc2c1 [Example 158, 2-Cyclohexyl-7-methoxy-4-(4-methylpiperazin-1-yl)quinazoline] | –
38 | + (+ indicates > 10−fold) | > 1 | COc1ccc2c(N3CCCC3)nc(C3CCCCC3)nc2c1 [Example 159, 2-Cyclohexyl-7-methoxy-4-(pyrrolidin-1-yl)quinazoline] | –
